Test [1] deals with MDA-MB-231. Briefly: Cytotoxicity against human MDA-MB-231 cells assessed as reduction in cell viability by MTT assay. Type of test: functional, cell-based. On the technique in general: Formazan colour is commonly taken as a measure of viable cells.
Test [2] has as its system A549. Nature of the test: Cytotoxicity against human A549 cells assessed as reduction in cell viability by MTT assay. Type of test: functional, cell-based.
The subject of test [3] is HCT-116. Briefly: Cytotoxicity against human HCT-116 cells assessed as reduction in cell viability by MTT assay. Type of test: functional, cell-based.
Test [4] concerns HCT-116. Nature of the test: Induction of apoptosis in human HCT-116 cells assessed as viable cells at 4 uM after 24 hrs by Annexin V-FITC/propidium iodide staining based flow cytometric analysis (reference value: 87.8%). Conditions: read-out: Activity. Type of test: functional. (A flow cytometer gives signals particle by particle.)
The test system of test [5] is HCT-116. Briefly: Induction of apoptosis in human HCT-116 cells assessed as viable cells at 8 uM after 24 hrs by Annexin V-FITC/propidium iodide staining based flow cytometric analysis (reference value: 87.8%). Type of test: functional. Conditions: read-out: Activity.
For test [6], the system named is HCT-116. Nature of the test: Induction of apoptosis in human HCT-116 cells assessed as viable cells at 16 uM after 24 hrs by Annexin V-FITC/propidium iodide staining based flow cytometric analysis (reference value: 87.8%). Type of test: functional. Conditions: read-out: Activity.
Test [7] concerns HCT-116. Briefly: Induction of apoptosis in human HCT-116 cells assessed as late apoptotic cells at 4 uM after 24 hrs by Annexin V-FITC/propidium iodide staining based flow cytometric analysis (reference value: 6.5%). Type of test: functional.
The subject of test [8] is HCT-116. Briefly: Induction of apoptosis in human HCT-116 cells assessed as early apoptotic cells at 4 uM after 24 hrs by Annexin V-FITC/propidium iodide staining based flow cytometric analysis (reference value: 5.3%). Type of test: functional.
The subject of test [9] is HCT-116. Nature of the test: Induction of apoptosis in human HCT-116 cells assessed as early apoptotic cells at 8 uM after 24 hrs by Annexin V-FITC/propidium iodide staining based flow cytometric analysis (reference value: 5.3%). Type of test: functional.
Test [10] deals with HCT-116. Nature of the test: Induction of apoptosis in human HCT-116 cells assessed as early apoptotic cells at 16 uM after 24 hrs by Annexin V-FITC/propidium iodide staining based flow cytometric analysis (reference value: 5.3%). Type of test: functional.
Test [11] has as its system HCT-116. Briefly: Induction of apoptosis in human HCT-116 cells assessed as late apoptotic cells at 8 uM after 24 hrs by Annexin V-FITC/propidium iodide staining based flow cytometric analysis (reference value: 6.5%). Type of test: functional.
Test [12] concerns HCT-116. Nature of the test: Induction of apoptosis in human HCT-116 cells assessed as late apoptotic cells at 16 uM after 24 hrs by Annexin V-FITC/propidium iodide staining based flow cytometric analysis (reference value: 6.5%). Type of test: functional.
Test [13] has as its system HCT-116. Briefly: Induction of apoptosis in human HCT-116 cells assessed as necrotic cells at 4 uM after 24 hrs by Annexin V-FITC/propidium iodide staining based flow cytometric analysis (reference value: 0.4%). Type of test: functional.
The test system of test [14] is HCT-116. Briefly: Induction of apoptosis in human HCT-116 cells assessed as necrotic cells at 8 uM after 24 hrs by Annexin V-FITC/propidium iodide staining based flow cytometric analysis (reference value: 0.4%). Type of test: functional.
The subject of test [15] is HCT-116. Briefly: Induction of apoptosis in human HCT-116 cells assessed as necrotic cells at 16 uM after 24 hrs by Annexin V-FITC/propidium iodide staining based flow cytometric analysis (reference value: 0.4%). Type of test: functional.
Test [16] concerns HCT-116. Nature of the test: Induction of apoptosis in human HCT-116 cells assessed as apoptotic cells after 24 hrs by Annexin V-FITC/propidium iodide staining based flow cytometric analysis. Conditions: dose microM 4-16, time 24.0 hrs. Type of test: functional, cell-based.
Test [17] relates to HCT-116. Briefly: Induction of apoptosis in human HCT-116 cells assessed as increase in cleaved-caspace-3 protein expression after 24 hrs by Western blot analysis. Type of test: functional, cell-based. As to conditions: dose microM 4-16, time 24.0 hrs. In general terms: A western blot detects proteins with antibodies after separation by electrophoresis.
For test [18], the system named is HCT-116. Briefly: Induction of apoptosis in human HCT-116 cells assessed as increase in cleaved-caspace-7 protein expression after 24 hrs by Western blot analysis. Type of test: functional, cell-based. Conditions: dose microM 4-16, time 24.0 hrs.
In test [19] the test system is HCT-116. Briefly: Induction of apoptosis in human HCT-116 cells assessed as increase in cleaved-PARP protein expression after 24 hrs by Western blot analysis. Type of test: functional, cell-based. Conditions: dose microM 4-16, time 24.0 hrs.

Where only a bound is given, the exact number is not on record here.

In general, IC50 refers to the midpoint of a concentration-inhibition curve. Consider `C=C1C(=O)O[C@@H]2[C@@H](OC(=O)CC(C)C)[C@@](C)(O)C[C@H]3C[C@@H](C)[C@@](O)(C[C@@H]12)O3`, for which the figures for the IC50 in [1], in test [2] and in [3] were 27.9 µM, 24.5 µM and 17.2 µM, respectively.
For `C=C1C(=O)O[C@@H]2[C@@H](OC(=O)[C@H](C)CC)[C@@](C)(O)CCC[C@@H](C)C(=O)C[C@@H]12` the same measures were 10.6 µM, 24.7 µM and 5.3 µM.
The like results for `C=C1C(=O)O[C@@H]2[C@@H](OC(=O)[C@H](C)CC)[C@@](C)(O)C[C@H]3C[C@@H](C)[C@@](O)(C[C@@H]12)O3` were, in that order, 48.9 µM, 37.6 µM and 21.4 µM.
In the case of `C=C1C(=O)O[C@@H]2[C@@H](OC(=O)C(C)C)[C@@](C)(O)CCC[C@@H](C)C(=O)C[C@@H]12`, the IC50 in [1] came to 11.6 µM; in test [2] it was 26.6 µM; in test [3], 8.5 µM.
For `C=C1C(=O)O[C@@H]2[C@@H](OC(=O)/C(C)=C\C)[C@@](C)(O)CCC[C@@H](C)C(=O)C[C@@H]12` the same measures were 4.7 µM, 14.1 µM and 3.2 µM.
The like results for `C=C1C(=O)O[C@@H]2[C@@H](OC(=O)C(C)C)[C@@](C)(O)C[C@H]3C[C@@H](C)[C@@](O)(C[C@@H]12)O3` were, in that order, above 50 µM, above 50 µM and 20.2 µM.
For the compound `C=C1C(=O)O[C@@H]2[C@@H](OC(=O)[C@@H](C)CC)[C@@](C)(O)C[C@H]3C[C@@H](C)[C@@](O)(C[C@@H]12)O3`, the IC50 in [1] is 23.7 µM; in [2], 24.3 µM; in [3], 14 µM.
In the case of `C=C1C(=O)O[C@@H]2[C@@H](OC(=O)[C@@H](C)CC)[C@@](C)(O)CCC[C@@H](C)C(=O)C[C@@H]12`, the figures for the IC50 in test [1], in [2] and in test [3] were 14.6 µM, 31.9 µM and 6.7 µM, respectively.
For `C=C1C(=O)O[C@@H]2[C@@H](OC(=O)CC(C)C)[C@@](C)(O)CCC[C@@H](C)C(=O)C[C@@H]12`, the IC50 in test [1] came to 6.1 µM; in [2], 8.4 µM; in [3], 3.7 µM. Further, the viability at 4 µM in test [4] stood at 87.1%. Moreover, the viability at 8 µM in test [5] was 83.8%. The viability at 16 µM in test [6] is 73.9%. Moreover, the Activity turned out to be 7.3% in test [7]; 5.2% in test [8]; 7.3% in test [9]; 10.5% in test [10]; 8.3% in [11]; 15% in test [12]. Also, the Activity in [13] is 0.4%; in [14], 0.6%; in test [15], 0.6%; in test [16], “Dose-dependent effect”; in [17] it was “Dose-dependent effect”; in test [18], “Dose-dependent effect”. In addition, in test [19], the Activity entry is “Dose-dependent effect”.
For `C=C1C(=O)O[C@@H]2[C@@H](OC(=O)/C(C)=C\C)[C@@](C)(O)C[C@H]3C[C@@H](C)[C@@](O)(C[C@@H]12)O3`, the half-inhibitory concentration (IC50) in test [1] was found to be 23.4 µM; in test [2], 17.3 µM; in test [3] it was 17.8 µM.

The values are drawn from ChEMBL document CHEMBL4699561, “Cytotoxic Germacranolides from the Whole Plant of Carpesium minus” (J Nat Prod, 2020).
